According to patent publication US20130295080A1, “Pharmaceutical composition for treating melasma and preparation method thereof” (Jilin Zixin Pharmaceutical Research Institution LLC, priority 2011, published 2013):

What was measured:
Type in all cases: in vivo, Kunming female mice
MDA in mice skins = test: MDA content in mice skins
NO in mice skins = test: NO content in mice skins; conditions: vitamin C group, dosage 0.1, once a day for 30 d, progesterone-modeled mice
SOD in mice livers = SOD in mice livers (reagent kit, spectrophotometer); conditions: vitamin C group
SOD in mice skins = test: SOD in mice skins; conditions: vitamin C group, dosage 0.1, once a day for 30 d, progesterone-modeled mice
[1] = viscosity of the whole blood of mice with progesterone-induced melasma; conditions: vitamin C group
MDA in mice livers = test: MDA content in mice livers; conditions: vitamin C group, dosage 0.1, once a day for 30 d, progesterone-modeled mice
[2] = system: melanin cells in skins of mice; test: melanin cells in skins of mice, HMB45 immunohistochemistry with image analysis; conditions: mouse skin, vitamin C group, progesterone-modeled mice
[3] = dosage 0.1, once a day for 30 d, progesterone-modeled mice
[4] = melanin-positive target, dosage 0.1, once a day for 30 d

O=C1O[C@H]([C@@H](O)CO)C(O)=C1O [vitamin C]
MDA (MDA in mice skins; vitamin C group, dosage 0.1, once a day for 30 d, progesterone-modeled mice): 4.20 ± 1.34
MDA contents compared with the modeling control group (MDA in mice skins; vitamin group): obviously decreased
NO (NO in mice skins): 1.71 ± 0.52
SOD activities compared with the modeling control group (SOD in mice livers): obviously increased
SOD (SOD in mice livers; [3]): 45.62 ± 16.04
SOD (SOD in mice skins): 19.95 ± 5.33
blood viscosity with different shear rates (mPas) 1/s ([1]; shear rate 1/s, dosage 0.1, once a day for 30 d, progesterone-modeled mice): 29.22 ± 2.18 mPas
blood viscosity with different shear rates (mPas) 30/s ([1]; shear rate 30/s, dosage 0.1, once a day for 30 d, progesterone-modeled mice): 11.22 ± 1.75 mPas
blood viscosity with different shear rates (mPas) 100/s ([1]; shear rate 100/s, dosage 0.1, once a day for 30 d, progesterone-modeled mice): 4.60 ± 1.36 mPas
blood viscosities with different shear rates compared with the normal control group [1]: obviously increased
blood viscosity with different shear rates (mPas) 3/3 [1, 3]: 28.85 ± 4.35 mPas
MDA (MDA in mice livers): 4.58 ± 1.26
average optical density [2, 4]: 0.33 ± 0.14
integrated optical density [2, 4]: 1152.52 ± 344.09
average size of positive target ([2]; dosage 0.1, once a day for 30 d): 3720.56 ± 1191.13
